Data as given in patent US20080096963A1, “Use Of A Fatty Acid For Preparing A Topical Composition For Allaying Inflammatory Reaction Due To Vennemous Hymenoptera Strings” (CEREP, priority 2004, published 2008).

Target: bee venom PLA2 (Apis mellifera, UniProt P00630)
Format: biochemical
Settings: pH 9

bee venom PLA2, sequence (P00630 34-167 limits assumed): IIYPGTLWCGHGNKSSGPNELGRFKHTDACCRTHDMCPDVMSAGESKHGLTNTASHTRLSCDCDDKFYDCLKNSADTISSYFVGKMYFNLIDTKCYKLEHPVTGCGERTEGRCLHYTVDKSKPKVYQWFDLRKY

Compound | inhibition of the enzymatic activity of bee venom PLA2
CCCCCCCC/C=C\CCCCCCCC(=O)O [oleic acid, oleic (cis-Δ^9-octadecenoic) acid] | inhibit the enzymatic activity of bee venom PLA2 in a dose-dependent manner
CCCCC/C=C\C/C=C\CCCCCCCC(=O)O [linoleic acid, linoleic (cis,cis-Δ^9-,Δ^12-octadecadienoic) acid] | inhibit the enzymatic activity of bee venom PLA2 in a dose-dependent manner
